For this test, the system named is HCV. Description: HCV eradication in HCV positive hemophilia patients (Working Example 6). In kind it is in vivo, hepatitis C virus. As to conditions: Patient No. 6, interferon-α-2b alone prior to administration in this example. On the procedure: In Table 5, the severity of hemophilia was rated as mild when the level of coagulation factors exceeded 5%, moderate when this level was from 1 to 5%, and severe when this level was below 1%. The HCV-RNA level was measured with an Amplicor HCV Assay, version 2 (Roche) at the start of administration. The genotype of the HCV virus was determined from the base sequence of the 5′-UTR region thereof. HCV eradication was indicated as “yes” when HCV-RNA viruses were not detected for 24 weeks following the end of administration. The HIV infection state was determined by the HIV antibodies using a particle agglutination assay kit (Fujirebio Inc.).

Turning to interferon-α-2b, the HCV eradication entry is recorded as “not eradicated”.

The values above are taken from patent US20110117054A1, “USE OF RIBAVIRIN IN BLOOD COAGULATION DISORDER” (National University Corporation Nagoya University, priority 2007, published 2011).
